Measured values taken from patent US11401270B2, “Alcoxyamino derivatives for treating pain and pain related conditions” (ESTEVE PHARMACEUTICALS, S.A., priority 2017, dated 2022).
Read-outs that look alike come from different tables or passages of the source.

How the values were obtained:
[1] = molecular target: Human α2δ-1 subunit of Cav2.2 calcium channel (Homo sapiens (Human), UniProt P54289); test: Binding Assay to Human α2δ-1 Subunit of Cav2.2 Calcium Channel; settings: human α2δ-1 enriched membranes, 15 nM [3H]-Gabapentin, read-out: Ki(nM) alpha2delta Hum
Human α2δ-1 subunit of Cav2.2 calcium channel, sequence (P54289 25-1103): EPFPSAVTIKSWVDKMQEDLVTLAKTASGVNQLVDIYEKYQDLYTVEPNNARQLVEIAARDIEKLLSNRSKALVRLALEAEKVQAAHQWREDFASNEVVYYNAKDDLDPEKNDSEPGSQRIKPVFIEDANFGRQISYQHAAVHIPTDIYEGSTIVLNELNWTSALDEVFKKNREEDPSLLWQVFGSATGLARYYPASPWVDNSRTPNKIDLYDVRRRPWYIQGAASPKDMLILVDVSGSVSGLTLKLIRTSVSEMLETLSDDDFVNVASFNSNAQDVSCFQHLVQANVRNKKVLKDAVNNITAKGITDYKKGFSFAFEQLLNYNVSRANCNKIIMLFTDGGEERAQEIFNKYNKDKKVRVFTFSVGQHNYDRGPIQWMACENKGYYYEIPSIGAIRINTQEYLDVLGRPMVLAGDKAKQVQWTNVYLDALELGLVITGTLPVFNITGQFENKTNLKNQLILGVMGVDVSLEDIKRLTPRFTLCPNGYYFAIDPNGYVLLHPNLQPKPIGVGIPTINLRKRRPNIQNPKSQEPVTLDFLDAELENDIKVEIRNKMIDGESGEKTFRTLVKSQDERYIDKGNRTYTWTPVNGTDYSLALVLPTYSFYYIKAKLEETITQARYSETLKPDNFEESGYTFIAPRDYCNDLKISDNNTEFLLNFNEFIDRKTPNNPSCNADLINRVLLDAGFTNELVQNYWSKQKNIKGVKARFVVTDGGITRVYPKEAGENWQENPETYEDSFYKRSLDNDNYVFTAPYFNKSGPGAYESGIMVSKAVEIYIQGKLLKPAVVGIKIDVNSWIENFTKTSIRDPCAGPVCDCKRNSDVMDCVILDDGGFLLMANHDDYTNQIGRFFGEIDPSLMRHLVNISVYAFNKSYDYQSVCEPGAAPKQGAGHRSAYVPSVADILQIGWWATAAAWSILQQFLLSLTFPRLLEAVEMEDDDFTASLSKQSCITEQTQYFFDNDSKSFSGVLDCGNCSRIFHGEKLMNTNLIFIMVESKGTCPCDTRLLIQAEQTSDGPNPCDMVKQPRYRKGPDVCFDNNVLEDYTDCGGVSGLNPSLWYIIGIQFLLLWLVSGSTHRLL
Description: Binding Assay to Human α2δ-1 Subunit of Cav2.2 Calcium Channel.
(§1) NSB (non specific binding) was measured by adding 10 μM pregabalin. The binding of the test compound was measured in five different concentrations. After 60 min incubation at 27° C., binding reaction was terminated by filtering through Multiscreen GF/C (Millipore) presoaked in 0.5% polyethyleneimine in Vacuum Manifold Station, followed by 3 washes with ice-cold filtration buffer containing 50 mM Tris-HCl, pH 7.4.
(§2) Filter plates were dried at 60° C. for 1 hour and 30 μl of scintillation cocktail were added to each well before radioactivity reading.

[2] = molecular target: Human norepinephrine transporter (NET) (Homo sapiens (Human), UniProt P23975); test: Binding Assay to Human Norepinephrine Transporter (NET); settings: Table 2, dual compounds; human NET enriched membranes, 5 nM [3H]-Nisoxetin; read-out: Ki(nM) NET Hum
Human norepinephrine transporter (NET), sequence (P23975 whole entry): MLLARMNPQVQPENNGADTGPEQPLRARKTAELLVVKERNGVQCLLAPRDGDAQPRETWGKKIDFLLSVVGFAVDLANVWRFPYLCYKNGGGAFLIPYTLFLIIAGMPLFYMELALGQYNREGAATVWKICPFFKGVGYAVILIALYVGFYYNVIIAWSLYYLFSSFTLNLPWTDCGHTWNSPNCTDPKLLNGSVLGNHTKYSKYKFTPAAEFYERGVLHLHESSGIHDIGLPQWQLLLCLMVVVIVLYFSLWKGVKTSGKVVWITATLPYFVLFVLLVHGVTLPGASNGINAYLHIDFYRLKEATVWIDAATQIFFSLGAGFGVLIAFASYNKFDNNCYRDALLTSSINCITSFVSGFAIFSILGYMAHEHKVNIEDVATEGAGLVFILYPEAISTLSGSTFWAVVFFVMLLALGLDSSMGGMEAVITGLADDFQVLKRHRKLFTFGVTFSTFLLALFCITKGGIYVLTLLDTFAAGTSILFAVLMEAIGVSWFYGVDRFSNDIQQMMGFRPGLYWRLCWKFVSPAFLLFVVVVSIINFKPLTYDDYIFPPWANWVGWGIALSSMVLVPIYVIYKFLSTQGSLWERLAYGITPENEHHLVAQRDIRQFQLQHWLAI
Description: Binding Assay to Human Norepinephrine Transporter (NET).
Human norepinephrine transporter (NET) enriched membranes (5 μg) were incubated with 5 nM of radiolabeled [3H]-Nisoxetin in assay buffer containing 50 mM Tris-HCl, 120 mM NaCl, 5 mM KCl, pH 7.4.
as §1, with “desipramine.” for “pregabalin.”, “4°” for “27°”, “Tris-HCl, 0.9% NaCl,” for “Tris-HCl,”
as §2

| SMILES | Ki ([1]; Table 1) | Ki ([1]; Table 2, dual compounds) | Ki [2] |
| --- | --- | --- | --- |
| CNCCC(Oc1cccc(CN2CCN(C)c3ccccc3C2)c1)c1cccs1 (stereo not drawn) [Example 1, N-methyl-3-(3-((1-methyl-1,2,3,5-tetrahydro-4H-benzo[e][1,4]diazepin-4-yl)methyl)phenoxy)-3-(thiophen-2-yl)propan-1-amine] | 100 to 500 nM | 100 to 500 nM | 500 to 1000 nM |
| CNCCC(Oc1cccc(C(=O)N2CCCN(C)CC2)c1)c1ccccc1 (stereo not drawn) [Example 3, (4-Methyl-1,4-diazepan-1-yl)(3-(3-(methylamino)-1-phenylpropoxy)phenyl)methanone] | 500 to 3000 nM | 500 to 3000 nM | 100 to 500 nM |
| CNCCC(OCc1cccc(N2CCCN(C)CC2)c1)c1ccccc1 (stereo not drawn) [Example 6, N-methyl-3-((3-(4-methyl-1,4-diazepan-1-yl)benzyl)oxy)-3-phenylpropan-1-amine] | 500 to 3000 nM | 500 to 3000 nM | 100 to 500 nM |
| CNCCC(OCc1cccc(N2CCN(C)c3ccccc3C2)c1)c1ccccc1 (stereo not drawn) [Example 7, N-methyl-3-((3-(1-methyl-1,2,3,5-tetrahydro-4H-benzo[e][1,4]diazepin-4-yl)benzyl)oxy)-3-phenylpropan-1-amine] | 500 to 3000 nM | 500 to 3000 nM | 500 to 1000 nM |
| CNCCC(OCc1cccc(N2CCCN(C)CC2)c1)c1cccs1 (stereo not drawn) [Example 10, N-methyl-3-((3-(4-methyl-1,4-diazepan-1-yl)benzyl)oxy)-3-(thiophen-2-yl)propan-1-amine] | 500 to 3000 nM | 500 to 3000 nM | 500 to 1000 nM |
| CCNc1ccc2c(n1)N(C)CCN(c1cccc(COC(CCNC)c3ccccc3)c1)C2=O (stereo not drawn) [Example 29, 8-(Ethylamino)-1-methyl-4-(3-((3-(methylamino)-1-phenylpropoxy)methyl)phenyl)-1,2,3,4-tetrahydro-5H-pyrido[2,3-e][1,4]diazepin-5-one] | 500 to 3000 nM | 500 to 3000 nM | 500 to 1000 nM |
| CNCCC(OCc1cccc(N2CCN(C)CCC2=O)c1)c1ccccc1 (stereo not drawn) [Example 34, 1-Methyl-4-(3-((3-(methylamino)-1-phenylpropoxy)methyl)phenyl)-1,4-diazepan-5-one] | 500 to 3000 nM | 500 to 3000 nM | 100 to 500 nM |
| CNCCC(OCc1cccc(N2CCNCCC2=O)c1)c1ccccc1 (stereo not drawn) [Example 37, 4-(3-((3-(Methylamino)-1-phenylpropoxy)methyl)phenyl)-1,4-diazepan-5-one] | 500 to 3000 nM | 500 to 3000 nM | 100 to 500 nM |
| CCN1CCC(=O)N(c2cccc(OC(CCNC)c3cccs3)c2)CC1 (stereo not drawn) [Example 58, 1-Ethyl-4-(3-(3-(methylamino)-1-(thiophen-2-yl)propoxy)phenyl)-1,4-diazepan-5-one] | 500 to 3000 nM | 500 to 3000 nM | 100 to 500 nM |
| CNCCC(Oc1cccc(N2CCN(C(C)C)CCC2=O)c1)c1cccs1 (stereo not drawn) [Example 60, 1-Isopropyl-4-(3-(3-(methylamino)-1-(thiophen-2-yl)propoxy)phenyl)-1,4-diazepan-5-one] | 500 to 3000 nM | 500 to 3000 nM | 500 to 1000 nM |
| CNCC[C@H](Oc1cccc(N2CCN(C(C)C)CCC2=O)c1)c1cccs1 [Example 66, (S)-1-isopropyl-4-(3-(3-(methylamino)-1-(thiophen-2-yl)propoxy)phenyl)-1,4-diazepan-5-one] | 500 to 3000 nM | 500 to 3000 nM | 100 to 500 nM |
| CNCC[C@@H](Oc1cccc(N2CCN(C(C)C)CCC2=O)c1)c1cccs1 [Example 67, (R)-1-isopropyl-4-(3-(3-(methylamino)-1-(thiophen-2-yl)propoxy)phenyl)-1,4-diazepan-5-one] | 100 to 500 nM | 100 to 500 nM | 500 to 1000 nM |
| CNCCC(Oc1cccc(N2CCN(C)c3nc(N(C)C)ccc3C2=O)c1)c1cccs1 (stereo not drawn) [Example 70, 8-(Dimethylamino)-1-methyl-4-(3-(3-(methylamino)-1-(thiophen-2-yl)propoxy)phenyl)-1,2,3,4-tetrahydro-5H-pyrido[2,3-e][1,4]diazepin-5-one] | 500 to 3000 nM | 500 to 3000 nM | 100 to 500 nM |
| CNCCC(Oc1cccc(N2CCN(C(C)C)CCC2=O)c1)c1ccsc1 (stereo not drawn) [Example 75, 1-Isopropyl-4-(3-(3-(methylamino)-1-(thiophen-3-yl)propoxy)phenyl)-1,4-diazepan-5-one] | 100 to 500 nM | 100 to 500 nM | 100 to 500 nM |
| CNCC[C@@H](Oc1cccc(N2CCN(C(C)C)CCC2=O)c1)c1ccsc1 [Example 76, (R)-1-isopropyl-4-(3-(3-(methylamino)-1-(thiophen-3-yl)propoxy)phenyl)-1,4-diazepan-5-one] | 500 to 3000 nM | 500 to 3000 nM | < 100 nM |
| CNCC[C@H](Oc1cccc(N2CCN(C(C)C)CCC2=O)c1)c1ccsc1 [Example 77, (S)-1-isopropyl-4-(3-(3-(methylamino)-1-(thiophen-3-yl)propoxy)phenyl)-1,4-diazepan-5-one] | 100 to 500 nM | 100 to 500 nM | 100 to 500 nM |
| CNCCC(Oc1cccc(N2CCN(C)c3nc(C)ccc3C2=O)c1)c1ccsc1 (stereo not drawn) [Example 78, 1,8-Dimethyl-4-(3-(3-(methylamino)-1-(thiophen-3-yl)propoxy)phenyl)-1,2.3,4-tetrahydro-5H-pyrido[2,3-e][1,4]diazepin-5-one] | 100 to 500 nM | 100 to 500 nM | 100 to 500 nM |
| CNCCC(Oc1ccc(CN2CCN(C)CCC2=O)c(F)c1)c1cccs1 (stereo not drawn) [Example 122, 4-(2-Fluoro-4-(3-(methylamino)-1-(thiophen-2-yl)propoxy)benzyl)-1-methyl-1,4-diazepan-5-one] | 100 to 500 nM | – | – |
| CNCC[C@H](Oc1ccc(CN2CCCn3nc(C)cc3C2=O)c(C)c1)c1cccs1 [Example 124, (S)-2-methyl-5-(2-methyl-4-(3-(methylamino)-1-(thiophen-2-yl)propoxy)benzyl)-5,6,7,8-tetrahydro-4H-pyrazolo[1,5-a][1,4]diazepin-4-one] | < 100 nM | – | – |

More lines, now with the values ahead:

| Ki ([1]; Table 1) | Ki ([1]; Table 2, dual compounds) | Ki [2] | SMILES |
| --- | --- | --- | --- |
| < 100 nM | – | – | CNCC[C@H](Oc1ccc(CN2CCN(C)c3ncc(F)cc3C2=O)c(C)c1)c1cccs1 [Example 125, (S)-7-fluoro-1-methyl-4-(2-methyl-4-(3-(methylamino)-1-(thiophen-2-yl)propoxy)benzyl)-1,2,3,4-tetrahydro-5H-pyrido[2,3-e][1,4]diazepin-5-one] |
| < 100 nM | – | – | CNCC[C@H](Oc1ccc(CN2CCN(C)c3ncccc3C2=O)c(C(F)(F)F)c1)c1cccs1 [Example 127, (S)-1-methyl-4-(4-(3-(methylamino)-1-(thiophen-2-yl)propoxy)-2-(trifluoromethyl)benzyl)-1,2,3,4-tetrahydro-5H-pyrido[2,3-e][1,4]diazepin-5-one] |
| 100 to 500 nM | – | – | CNCC[C@H](Oc1ccc(CN2CCN(C)c3ncccc3C2=O)c(C2CC2)c1)c1cccs1 [Example 128, (S)-4-(2-cyclopropyl-4-(3-(methylamino)-1-(thiophen-2-yl)propoxy)benzyl)-1-methyl-1,2,3,4-tetrahydro-5H-pyrido[2,3-e][1,4]diazepin-5-one] |
| < 100 nM | – | – | CNCC[C@H](Oc1ccc(CN2CCN(C)c3ncccc3C2=O)c(C(F)(F)F)c1)c1ccccc1 [Example 130, (S)-1-methyl-4-(4-(3-(methylamino)-1-phenylpropoxy)-2-(trifluoromethyl)benzyl)-1,2,3,4-tetrahydro-5H-pyrido[2,3-e][1,4]diazepin-5-one] |
| 100 to 500 nM | – | – | CNCC[C@H](Oc1ccc(CN2CCN(C)c3ncccc3C2=O)c(C2CC2)c1)c1ccccc1 [Example 133, (S)-4-(2-cyclopropyl-4-(3-(methylamino)-1-phenylpropoxy)benzyl)-1-methyl-1,2,3,4-tetrahydro-5H-pyrido[2,3-e][1,4]diazepin-5-one] |
| 500 to 3000 nM | – | – | CNCC[C@@H](Oc1ccc(CN2CCN(C)c3ncccc3C2=O)c(F)c1)c1cccc(F)c1 [Example 135, (R)-4-(2-fluoro-4-(1-(3-fiuorophenyl)-3-(methylamino)propoxy)benzyl)-1-methyl-1,2,3,4-tetrahydro-5H-pyrido[2,3-e][1,4]diazepin-5-one] |
| > 3000 nM | – | – | CNCC[C@H](Oc1ccc(CN2CCN(C)c3c(ccnc3OC)C2=O)c(F)c1)c1ccccc1 [Example 146, (S)-4-(2-fluoro-4-(3-(methylamino)-1-phenylpropoxy)benzyl)-9-methoxy-1-methyl-1,2,3,4-tetrahydro-5H-pyrido[3,4-e][1,4]diazepin-5-one] |
| > 3000 nM | – | – | CCNc1ccc2c(n1)N(C)CCN(Cc1ccc(O[C@H](CCNC)c3cccc(F)c3)cc1F)C2=O [Example 147, (R)-8-(ethylamino)-4-(2-fluoro-4-(1-(3-fluorophenyl)-3-(methylamino)propoxy)benzyl)-1-methyl-1,2,3,4-tetrahydro-5H-pyrido[2,3-e][1,4]diazepin-5-one] |
| 500 to 3000 nM | 500 to 3000 nM | – | CNCC[C@@H](Oc1ccc(CN2CCN(C)c3ncccc3C2=O)cc1)c1cccc(F)c1 [Example 150, (R)-(4-(1-(3-fluorophenyl)-3-(methylamino)propoxy)benzyl)-1-methyl-1,2,3,4-tetrahydro-5H-pyrido[2,3-e][1,4]diazepin-5-one] |
